According to patent US20060079453A1, “Hla binding peptides and their uses” (priority 2002, published 2006):
Where “and” joins values, the source holds several entries; their conditions need not be identical. Equal values may be shown once. Read-outs that look alike come from different tables or passages of the source. No end group written: not given here.

Columns and labels:
[1] = molecular target: H-2 Db (Mus musculus, UniProt P01899); assay: biochemical; assay type: binding, murine; settings: Db
[2] = molecular target: HLA-A*0101 (Homo sapiens, UniProt P04439, A114D/A174V/A182V/D101N/D185E/E176A/E190D/L180R/Q94H/R68K/S129P/T187R/V100A/V91M/W191G); assay: biochemical; assay type: binding; settings: Binding affinity to A*0101 (expressed as an IC50)
[3] = molecular target: HLA-A*3002 (Homo sapiens, UniProt P04439, D101N/D140H/D185E/E176R/F33S/G80R/H175R/K168Q/Q94H/R138E/R41S/V100E); assay: biochemical; assay type: binding
[4] = molecular target: HLA-A*2301 (Homo sapiens, UniProt P04439, D101N/D140Y/D185E/E176V/E190D/F33S/G103R/G107R/H175R/I119L/I121M/I306V/K168Q/K335N/L105A/L300P/N151K/N90K/P307H/Q86E/Q94H/R106L/R138H/R89G/T104I/T345S/V100E/W191G/Y123F); assay: biochemical; assay type: binding
[5] = molecular target: HLA-A*2902 (Homo sapiens, UniProt P04439, A270S/D101N/D185E/E176V/E277Q/E87Q/F33T/G231S/H175R/I121M/I218V/I322F/K168Q/L300P/L318F/M331R/P208A/P217A/Q86L/T323A/T345S/V100A/V358M); assay: MHC molecular binding / Capture assay, IC50: A*2902
[6] = molecular target: HLA-A*2402 (Homo sapiens, UniProt P04439, D101N/D140Y/D185E/E176V/E190D/F33S/G103R/G107R/I119L/I121M/I306V/K335N/L105A/L180Q/L300P/N151K/N90K/Q86E/Q94H/R106L/R138H/R89G/T104I/T345S/V100E/W191G/Y123F); assay: MHC molecular binding / Capture assay, IC50: A*2402
[7] = Binding affinity to A*3002 (expressed as an IC50)
[8] = Binding affinity to A*2902 (expressed as an IC50)

Chain of H-2 Db (P61769 21-119): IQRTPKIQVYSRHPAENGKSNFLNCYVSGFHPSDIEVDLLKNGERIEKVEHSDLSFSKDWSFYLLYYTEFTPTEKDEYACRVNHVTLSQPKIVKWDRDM
Chain of H-2 Db (P01899 25-362): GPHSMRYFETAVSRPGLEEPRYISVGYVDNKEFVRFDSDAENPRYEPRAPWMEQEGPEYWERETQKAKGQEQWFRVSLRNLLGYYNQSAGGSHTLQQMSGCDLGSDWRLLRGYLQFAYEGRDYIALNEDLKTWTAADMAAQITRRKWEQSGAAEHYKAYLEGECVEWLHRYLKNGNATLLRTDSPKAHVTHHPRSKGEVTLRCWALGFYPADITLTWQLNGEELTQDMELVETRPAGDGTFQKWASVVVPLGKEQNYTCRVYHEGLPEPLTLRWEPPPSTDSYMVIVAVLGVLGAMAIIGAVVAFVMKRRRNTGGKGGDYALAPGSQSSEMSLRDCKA

| Compound | IC50 [1] | IC50 [2] | IC50 [5] [nM] | IC50 [3] [nM] | further results |
| --- | --- | --- | --- | --- | --- |
| CSCC[C@H](NC(=O)[C@H](C)NC(=O)[C@H](C)NC(=O)[C@H](C)NC(=O)[C@H](CC(N)=O)NC(=O)[C@H](C)NC(=O)[C@H](C)NC(=O)[C@H](C)NC(=O)[C@H](C)NC(=O)[C@H](C)NC(=O)[C@H](C)N)C(=O)O | 257 nM |  |  |  |  |
| CSCC[C@H](NC(=O)[C@H](C)NC(=O)[C@H](C)NC(=O)[C@H](C)NC(=O)[C@H](C)NC(=O)[C@H](Cc1ccc(O)cc1)NC(=O)[C@H](C)NC(=O)[C@H](C)NC(=O)[C@H](C)NC(=O)[C@H](C)N)C(=O)O | > 44000 nM |  |  |  |  |
| CSCC[C@H](NC(=O)[C@H](C)NC(=O)[C@H](C)NC(=O)[C@H](Cc1ccc(O)cc1)NC(=O)[C@H](C)NC(=O)[C@H](C)NC(=O)[C@H](C)NC(=O)[C@H](C)N)C(=O)O | > 44000 nM |  |  |  |  |
| CC(C)[C@H](NC(=O)[C@@H](NC(=O)[C@H](CC(=O)O)NC(=O)[C@H](CO)NC(=O)[C@H](CC(N)=O)NC(=O)[C@@H](NC(=O)CNC(=O)[C@H](CS)NC(=O)[C@@H](N)Cc1ccccc1)C(C)C)[C@@H](C)O)C(=O)O | 206 nM and 166 nM |  |  |  |  |
| CC[C@H](C)[C@H](NC(=O)[C@H](Cc1ccccc1)NC(=O)[C@H](CCC(N)=O)NC(=O)CNC(=O)[C@H](CC(N)=O)NC(=O)[C@H](CCC(N)=O)NC(=O)[C@@H]1CCCN1C(=O)[C@H](CCC(N)=O)NC(=O)[C@@H](N)Cc1ccccc1)C(=O)N[C@@H](Cc1c[nH]cn1)C(=O)N[C@@H](Cc1ccccc1)C(=O)N[C@@H](Cc1ccc(O)cc1)C(=O)O | 280 nM |  |  |  |  |
| CC[C@H](C)[C@H](N)C(=O)N[C@@H](CO)C(=O)N[C@@H](CCC(=O)O)C(=O)N[C@@H](Cc1ccc(O)cc1)C(=O)N[C@@H](CCCNC(=N)N)C(=O)N[C@@H](Cc1c[nH]cn1)C(=O)N[C@@H](Cc1ccc(O)cc1)C(=O)N[C@@H](CC(N)=O)C(=O)N[C@@H](Cc1ccc(O)cc1)C(=O)O |  | 25 nM |  |  | IC50 [3, 7]: 32 nM; IC50 [4]: > 23600 nM |
| CC[C@H](C)[C@H](N)C(=O)N[C@H](C(=O)N[C@@H](Cc1ccc(O)cc1)C(=O)N[C@@H](CCCCN)C(=O)N[C@@H](CC(N)=O)C(=O)N[C@@H](CO)C(=O)N[C@H](C(=O)N[C@@H](Cc1c[nH]c2ccccc12)C(=O)N[C@H](C(=O)O)C(C)C)[C@@H](C)O)[C@@H](C)O | 409 nM and 276 nM |  |  |  |  |
| CC(C)C[C@H](NC(=O)[C@@H](NC(=O)[C@@H](N)CCCCN)[C@@H](C)O)C(=O)N[C@@H](Cc1ccc(O)cc1)C(=O)N[C@@H](CCC(N)=O)C(=O)N[C@@H](CO)C(=O)N[C@@H](CC(N)=O)C(=O)N1CCC[C@H]1C(=O)N[C@@H](Cc1ccc(O)cc1)C(=O)O |  | 6910 nM |  |  | IC50 [5, 8]: 1700 nM; IC50 [3, 7]: 35 nM |
| CC[C@H](C)[C@H](NC(=O)[C@@H](NC(=O)[C@@H]1CCCN1C(=O)[C@H](Cc1c[nH]cn1)NC(=O)[C@H](CO)NC(=O)[C@H](Cc1ccc(O)cc1)NC(=O)[C@@H](N)CC(C)C)[C@@H](C)CC)C(=O)N[C@@H](CC(C)C)C(=O)NCC(=O)N[C@@H](Cc1ccccc1)C(=O)O |  | 3170 nM |  |  | IC50 [4]: 5.4 nM; IC50 [6]: 2.6 nM |
| CC[C@H](C)[C@H](NC(=O)[C@@H](NC(=O)[C@@H](NC(=O)[C@H](Cc1ccccc1)NC(=O)[C@H](C)NC(=O)[C@H](CCCNC(=N)N)NC(=O)CNC(=O)[C@@H]1CCCN1C(=O)CNC(=O)[C@@H](N)CCCNC(=N)N)C(C)C)[C@@H](C)O)C(=O)O | 22000 nM |  |  |  |  |
| C[C@H](NC(=O)[C@H](CCC(N)=O)NC(=O)[C@@H](N)CCCNC(=N)N)C(=O)N[C@@H](CCCCN)C(=O)N[C@@H](CCC(N)=O)C(=O)N[C@@H](Cc1c[nH]cn1)C(=O)N[C@H](C(=O)N[C@@H](CS)C(=O)N[C@@H](Cc1ccc(O)cc1)C(=O)O)[C@@H](C)O |  | > 135000 nM |  |  | IC50 [5, 8]: 155000 nM; IC50 [3, 7]: 108 nM |
| CC[C@H](C)[C@H](NC(=O)[C@H](CC(=O)O)NC(=O)[C@H](CCC(N)=O)NC(=O)[C@@H](N)CCCNC(=N)N)C(=O)N[C@@H](CC(C)C)C(=O)N[C@@H](CC(=O)O)C(=O)N[C@@H](CC(C)C)C(=O)N[C@@H](Cc1c[nH]c2ccccc12)C(=O)N[C@H](C(=O)N[C@@H](Cc1ccc(O)cc1)C(=O)O)C(C)C |  | 9000 nM |  |  | IC50 [5, 8]: 13900 nM; IC50 [3, 7]: 95 nM |
| CC[C@H](C)[C@H](NC(=O)[C@H](CCC(=O)O)NC(=O)[C@@H]1CCCN1C(=O)[C@@H]1CCCN1C(=O)[C@@H](NC(=O)[C@H](CC(N)=O)NC(=O)[C@H](CO)NC(=O)[C@@H]1CCCN1C(=O)CNC(=O)[C@@H](N)CO)[C@@H](C)O)C(=O)O | 8.1 nM |  |  |  |  |
| CC[C@H](C)[C@H](NC(=O)[C@H](CCCCN)NC(=O)[C@H](CCC(=O)O)NC(=O)[C@H](CC(C)C)NC(=O)[C@@H](N)[C@@H](C)O)C(=O)N[C@H](C(=O)N[C@@H](CC(N)=O)C(=O)N[C@H](C(=O)N[C@@H](CCC(=O)O)C(=O)N[C@@H](CC(C)C)C(=O)N[C@@H](Cc1ccc(O)cc1)C(=O)O)[C@@H](C)O)[C@@H](C)O |  | 17 nM |  |  | IC50 [5, 8]: 8400 nM; IC50 [3, 7]: 3900 nM |
| CC(C)C[C@H](NC(=O)CNC(=O)[C@@H](NC(=O)[C@H](CC(N)=O)NC(=O)[C@@H](NC(=O)[C@H](CC(C)C)NC(=O)[C@H](CCCCN)NC(=O)[C@H](CCC(=O)O)NC(=O)[C@H](CC(C)C)NC(=O)[C@@H](N)[C@@H](C)O)[C@@H](C)O)[C@@H](C)O)C(=O)N[C@@H](Cc1ccc(O)cc1)C(=O)O |  | 77 nM and 23 nM | 991 | 92 | IC50 [5, 8]: 5500 nM |
| CC(C)C[C@H](NC(=O)[C@H](CC(=O)O)NC(=O)[C@H](CCC(N)=O)NC(=O)[C@@H](N)[C@@H](C)O)C(=O)N[C@H](C(=O)N[C@@H](CCC(N)=O)C(=O)N[C@@H](CCC(=O)O)C(=O)N[C@@H](CCCCN)C(=O)N[C@@H](Cc1ccc(O)cc1)C(=O)O)C(C)C |  | 57 nM | 33300 | 3800 |  |
| CC[C@H](C)[C@H](NC(=O)[C@H](Cc1c[nH]cn1)NC(=O)[C@H](Cc1ccccc1)NC(=O)[C@@H](N)Cc1c[nH]c2ccccc12)C(=O)N[C@@H](CO)C(=O)N[C@@H](CS)C(=O)N[C@@H](CC(C)C)C(=O)N[C@H](C(=O)N[C@@H](Cc1ccccc1)C(=O)O)[C@@H](C)O |  | 85300 nM | 95 | 75100 | IC50 [4]: 11 nM; IC50 [6]: 204 nM |
| AAAANAAAM | 23 nM |  |  |  |  |
| ASNENMDAM | 28 nM |  |  |  |  |
| CMANNSHHYI | 220 nM |  |  |  |  |
| CSANNSHHYM | 42 nM |  |  |  |  |
| ELDSALEIPY |  | 38 nM | 82200 | 38300 |  |
| ETRHYNYSLY |  | 445 nM | 5460 | 29 |  |
| ETSSALEIPY |  | 19 nM | 12000 | 7140 |  |
| EYDHYCYSLY |  | 110000 nM | 799 | 77 |  |
| FAPGYNPAL [FAPGYNPAL] | 2 nM |  |  |  |  |
| FQAAESNERY |  | 8960 nM |  |  | IC50 [5, 8]: 1780 nM; IC50 [3, 7]: 372 nM |

| Compound | IC50 [1] | IC50 [2] | IC50 [5] [nM] | IC50 [3] [nM] | further results |
| --- | --- | --- | --- | --- | --- |
| FQPQNGQFI | 6.9 nM and 4.9 nM and 17 nM |  |  |  |  |
| FTDLRIVY |  | 26 nM |  |  | IC50 [5, 8]: 813 nM; IC50 [3, 7]: 8060 nM |
| FTSKVRKYRY |  | 64 nM and 37 nM | 6680 | 52 |  |
| GMRQNATEI | 81 nM |  |  |  |  |
| ITDIILECVY |  | 1.8 nM | 7660 | 505 |  |
| KAVYNFATCGI | 29 nM |  |  |  |  |
| KQYLNLYPV | 3.4 nM |  |  |  |  |
| KTDQRSEVY |  | 84 nM and 41 nM | 200000 | 1170 |  |
| KTRYYDYSVY |  | 2960 nM | 87800 | 0.71 |  |
| KYDYYDYSVY |  | 186000 nM | 5750 | 11 |  |
| LTDIEITCVY |  | 12 nM and 33 nM | 540 | 80 |  |
| LTDLRLSCVY |  | 45 nM | 1780 | 613 |  |
| LTEYVLDLY |  | 6 nM and 8 nM | 941 | 81 |  |
| QNADKNFLY |  | 3810 nM |  |  | IC50 [5, 8]: 24 nM; IC50 [3, 7]: 663 nM |
| QTEQATSNY |  | 14 nM | 119000 | 3250 |  |
| QTEQATSNYY |  | 11 nM | 9580 | 500 |  |
| RTAKQHTCY |  | 5650 nM | 130000 | 346 |  |
| RTDILDLWVY |  | 85 nM | 13400 | 360 |  |
| STVKHHMY |  | 8130 nM | 1760 | 68 |  |
| TLEKGPGPGLY |  | 13 nM |  |  | IC50 [5, 8]: 2040 nM; IC50 [3, 7]: 40 nM |
| TLEKLGPGPGY |  | 269 nM |  |  | IC50 [5, 8]: 4470 nM; IC50 [3, 7]: 1960 nM |
| TLGPGPGTGLY |  | 350 nM |  |  | IC50 [5, 8]: 1320 nM; IC50 [3, 7]: 7.4 nM |
| VSSIFISFY |  | 144 nM |  |  | IC50 [5, 8]: 1800 nM; IC50 [3, 7]: 55 nM |
| YSDIRELRHY |  | 14 nM | 1140 | 740 |  |
| YSDVRKYRYY |  | 19 nM | 849 | 794 |  |
| YTDGPGIRY |  | 11 nM | 562 | 7910 |  |
| YTKVSEFRWY |  | 276 nM and 204 nM | 3310 | 420 |  |
